# Data: patent publication US20260317367A1, “SALTS INCLUDING CRYSTALLINE SALTS OF 25-HYDROXY-CHOLEST-5-EN-3-SULFATE AND METHODS FOR PREPARING SAME” (Durect Corporation, priority 2022, published 2026)
# “Also recorded” adds a separate entry of the source. Counter-ions that a name gives are not always drawn.
# What was measured:
# Type in all cases: physicochemical
# [1] = Angle of repose of 25HC3S salts
# Experimental: Angle of repose is measured as follows. Powder is poured from a funnel onto a flat surface until a cone of powder is created. The angle of repose is calculated according to the following equation: […]
# Table C1, from USP<1174> Powder Flow, describes the powder flow properties correlating to the angles of repose.
# The lower the angle of repose, the more flowable is a material. Powder with an angle of repose between 25° to 30° will show excellent flow through a hopper, feed frame, die table and die bore smoothly. From 41° to greater than 66°, you may experience powder flow difficulties like rat-holing or bridging within the hopper.
# The angle of repose was determined by pouring approximately 2 grams of a 25HC3S salt through a 7 mm inner diameter plastic tube into the center of a 21.14 mm diameter rubber O-ring, resulting in the formation of a powder cone of fixed diameter. The height of the cone was estimated with calipers.
# [2] = Thermogravimetric analysis (TGA), weight loss
# Experimental: Differential scanning calorimetry (DSC) is a thermoanalytical technique where the difference in the amount of heat required to increase the temperature of a sample and reference is measured as a function of temperature. Using this technique, phase transitions of a sample can be measured such as melting point. Decomposition can also be observed by DSC as can dehydration events. In the context of DSC measurements, there is also variability and the term “about” means ±1° C., and such variability is to be understood whether a DSC measurement is prefaced by “about” or not unless specified otherwise. Exemplary methods for collecting DSC data are set forth in Example 21. Thermogravimetric analysis, sometimes referred to as, thermal gravimetric analysis (TGA) is a thermal method of thermal analysis where the mass of a sample is measured as a function of time as the sample temperature changes. For example, when samples disclosed herein are heated and a loss in mass is measured prior to decomposition, this is likely indicative of the loss of water from the sample and may indicate that the sample being heated is a hydrate. Exemplary methods for collecting TGA are set forth in Example 23.
# TG analysis was performed using a Mettler-Toledo TGA/DSC3 analyzer. Temperature and enthalpy adjustments were performed using indium, tin, and zinc, and then verified with indium. The balance was verified with calcium oxalate. The sample was placed in an open aluminum pan. The pan was hermetically sealed, the lid pierced, then inserted into the TG furnace. A weighed aluminum pan configured as the sample pan was placed on the reference platform. The furnace was heated under nitrogen. Each sample was heated from ambient temperature to 350° C. at 10° C./min. Although thermograms are plotted by reference temperature (x-axis), results are reported according to sample temperatures.
# [3] = Hausner ratio and compressibility index of 25HC3S salts; conditions: for Compressibility Index: Table C3 heads this index in %
# Experimental: Although there are some variations in the method of determining the compressibility index and Hausner ratio, the basic procedure is to measure the unsettled apparent volume, VO, and the final tapped volume, Vf, of the powder after tapping the material until no further volume changes occur. The compressibility index and the Hausner ratio are calculated as follows: […]
# Both the Hausner ratio and the compressibility index are empirically established. The Hausner ratio and compressibility index are not absolute properties of a material; its value can vary depending on the methodology used to determine them. In this case, since the 14 salts of 25HC3S were measured the same way, the relative values should be accurate.
# Table C3, from USP <1174> Powder Flow, describes the flow character of the powder based on the compressibility index and Hausner ratio values.
# Powder was carefully poured into a 5 mL glass graduated cylinder (to contain) until it was close to or at 5.0 mL. This initial volume was recorded as Vo. The graduated cylinder was tapped on a hard surface for 200 times and the volume was recorded. The cylinder was tapped 100 times more, and the final volume Vf was recorded. Typically, the volume after 200 taps was identical to after 300 taps, or within 0.1 mL.
# [4] = Solid-state chemical stability of 25HC3S salts at 2-8° C., 60° C. and 80° C. (HPLC assay and degradation products); conditions: for % Impurities, Total / % Impurities, 25-HC: ND = Not Detected; for % Impurities, 25-HC: 25-Hydroxy-Cholesterol; for % Recovery: vs 2-8° C.
# Experimental: Approximately 25 mg of each crystalline 25HC3S salt was added to 20 mL glass vials and each powder weight was recorded. Four vials were prepared for each salt and stored at 2-8° C. or 80° C. according to Table B2. The samples were scheduled initially to pull for testing at 3 weeks and 6 weeks' time points.
# For those […] salts, the remaining vials stored at 2-8° C. for 3 weeks were allocated for storage at 60° C. for 1 week. Additional stability data was generated according to Table B3.
# Based on the molecular weights, and expected UV response factors of each salt used in this study, the expected analytical sample concentrations were within the range of the 25HC3S sodium reference standards (0.75 mg/mL to 1.25 mg/mL as 25HC3S sodium salt). However, due to the lower-than-expected purity of the 25HC3S benzathine salt, an additional standard was prepared at 0.125 mg/mL as 25HC3S sodium salt.
# Samples were prepared by pipetting 20 mL of 100% methanol into each vial and mixing well, with sonication and vortexing to fully dissolve the samples for HPLC analysis.
# Samples were prepared by pipetting 20 mL of 100% methanol into each vial followed by two rounds of sonication for 30 minutes, with 30 seconds of vortexing before and after each round. Sample aliquots were then centrifuged at 10,000 RPM for 10 minutes and the supernatant collected for HPLC analysis.
# Samples were prepared by pipetting 20 mL of 100% methanol into each vial, followed by 5 seconds of vortexing. The undissolved powder in methanol was quantitatively transferred into 200 mL volumetric flasks. The sample vials were rinsed 3 times with methanol, with each rinsate transferred to the 200 mL volumetric flasks. The volumetric flasks were filled to about 90% volume and sonicated for 10 minutes to fully dissolve the powder. The flasks were filled to volume with methanol, mixed well and aliquots collected for HPLC analysis.
# HPLC analysis was performed.
# [5] = Overall rank order of powder flowability (angle of repose and Hausner ratio); conditions: for Powder flowability, overall (in words): angle of repose and compressibility index/Hausner ratio combined; for Angle of Repose Rank Order / Hausner Ratio Rank Order / Overall Rank Order (Total Score): lower is better flow; for Overall Rank Order (Total Score): sum of both ranks
# Text: Table C5 was generated by adding the relative rank order of the 25HC3S salts for angle of repose and Hausner ratio results, and creating an Over All Rank Order of the salts powder flowability. The salts with the lower overall rank order score had better powder flowability.
# [6] = 2-8° C., 3 wk, listed as 25HC3S zinc
# [7] = 80° C., 3 weeks, listed as 25HC3S Zinc
# [8] = 2-8° C., 3 wk, listed as 25HC3S choline
# [9] = 2-8° C., 5 wk, listed as 25HC3S choline
# [10] = 80° C., 3 wk, listed as 25HC3S choline
# [11] = 80° C., 5 wk, listed as 25HC3S choline
smiles,measurement,setting,value
CC(CCCC(C)(C)O)C1CCC2C3CC=C4CC(OS(=O)(=O)O)CCC4(C)C3CCC12C (stereo not drawn) [Salt #3],Flow Property per USP<1174> Powder Flow,"[1]; classification by angle of repose, listed as 25HC3S zinc",Passable - may hang up
same,Angle of Repose,[1]; listed as 25HC3S zinc,42.4 degrees
same,"Angle of Repose, Rounded Whole Number",[1]; listed as 25HC3S zinc,42 degrees
same,"Weight loss by TGA, about […] C. to about 190° C.","[2]; about […] C. to about 190° C., may be decomposition",11.5%
same,"Weight loss by TGA, room temperature to about 130° C.",[2]; room temperature to about 130° C.,about 5.1%
same,Compressibility Index,[3]; listed as 25HC3S zinc,28
same,Hausner Ratio,[3]; listed as 25HC3S zinc,1.39
same,Assay,"[4]; 2-8° C., 3 wk, 30240 min, listed as 25HC3S zinc",92.6 % w/w
same,"% Impurities, Total",[4]; [6],0.6%
same,Overall physical and chemical stability (in words),"[4]; 2-8° C., 60° C., 80° C.",least physically and chemically stable
same,Overall physical and chemical stability (in words),"[4]; 2-8° C., 60° C., 80° C., listed as zinc",least stable
same,"% Impurities, 25-HC",[4]; [6],0.2%
same,Physical and chemical solid-state stability (comments),"[4]; 60° C., 1 week, listed as 25HC3S Zinc",Totally decomposed after 1 weck at 60 °C
same,Assay,"[4]; 60° C., 1 wk (after 3 weeks at 2-8° C.), 10080 min, listed as 25HC3S zinc, 10080 min",0.0 % w/w
same,% Recovery of 2-8° C./3 wk vs 60° C./1 wk,"[4]; 60° C., 1 wk, 10080 min, listed as 25HC3S zinc",0.0%
same,"% Impurities, Total","[4]; 60° C., 1 wk, listed as 25HC3S zinc",100.0%
same,Physical and chemical solid-state stability (comments),[4]; [7],Totally decomposed after 1 weck at 60 °C and after 3 weeks at 80 °C
same,dissolution of decomposed samples in diluent / degradants observed (comments),[4]; [7],"decomposed samples at 3-weeks at 80 °C did not dissolve in the diluent,; also recorded: therefore, no degradants were observed"
same,% Recovery,"[4]; 80° C., 3 wk, 30240 min, listed as 25HC3S zinc, 30240 min",0.0%
same,Assay,"[4]; 80° C., 3 wk, 30240 min, listed as 25HC3S zinc",0.0 % w/w
same,Stability after 1 week at 60° C. (in words),"[4]; solid state, 60° C., 1 week (after 3 weeks at 2-8° C.)",totally decomposed
same,Stability after 3 weeks at 80° C. (in words),"[4]; solid state, 80° C., 3 weeks",totally decomposed
same,"Powder flowability, overall (in words)",[5]; listed as zinc,next group
same,Angle of Repose Rank Order,[5]; listed as 25HC3S zinc,10
same,Hausner Ratio Rank Order,[5]; listed as 25HC3S zinc,5
same,Overall Rank Order (Total Score),[5]; listed as 25HC3S zinc,15
CC(CCCC(C)(C)O)C1CCC2C3CC=C4CC(OS(=O)(=O)O)CCC4(C)C3CCC12C (stereo not drawn) [Salt #4],Angle of Repose,[1]; listed as 25HC3S choline,34.9 degrees
same,"Angle of Repose, Rounded Whole Number",[1]; listed as 25HC3S choline,35 degrees
same,Weight loss by TGA up to 198° C. (in words),[2]; up to 198° C.,negligible weight loss
same,Compressibility Index,[3]; listed as 25HC3S choline,42
same,Hausner Ratio,[3]; listed as 25HC3S choline,1.72
same,Assay,"[4]; 2-8° C., 3 wk, 30240 min, listed as 25HC3S choline",101.6 % w/w
same,"% Impurities, Total",[4]; [8],1.0%
same,Assay,"[4]; 2-8° C., 5 wk, 50400 min, listed as 25HC3S choline",108.1 % w/w
same,"% Impurities, Total",[4]; [9],0.9%
same,Overall physical and chemical stability (in words),"[4]; 2-8° C., 60° C., 80° C.",physically and chemically stable
same,Overall physical and chemical stability (in words),"[4]; 2-8° C., 60° C., 80° C., listed as 25HC3S choline",relatively stable
same,"% Impurities, 25-HC",[4]; [8],0.2%
same,"% Impurities, 25-HC",[4]; [9],0.2%
same,"% Impurities, 25-HC",[4]; [10],0.4%
same,"% Impurities, 25-HC",[4]; [11],0.2%
same,Stressed stability at 80° C. (in words),[4]; 80° C.,"good, stressed stability"
same,% Recovery,"[4]; 80° C., 3 wk, 30240 min, listed as 25HC3S choline, 30240 min",100.8%
same,Assay,"[4]; 80° C., 3 wk, 30240 min, listed as 25HC3S choline",102.4 % w/w
same,"% Impurities, Total",[4]; [10],1.2%
same,Physical and chemical solid-state stability (comments),"[4]; 80° C., 5 weeks",Stable after 5 weeks at 80 °C physically and chemically.
same,Assay,"[4]; 80° C., 5 wk, 50400 min, listed as 25HC3S choline",105.2 % w/w
same,"% Impurities, Total",[4]; [11],2.2%
same,Stability after 5 weeks at 80° C. (in words),"[4]; solid state, 80° C., 5 weeks",stable
same,remaining at 840 h,"[4]; solid state, 80° C., 5 wk, read-out: % Recovery, 2-8° C./5 wk vs 80° C./5 wk",97.3%
same,"Powder flowability, overall (in words)",[5]; listed as choline,next group
same,Angle of Repose Rank Order,[5]; listed as 25HC3S choline,4
same,Hausner Ratio Rank Order,[5]; listed as 25HC3S choline,15
same,Overall Rank Order (Total Score),[5]; listed as 25HC3S choline,19
